Here are results for ten molecules from ChEMBL document CHEMBL5346946, “Targeting Arginine Methyltransferase PRMT5 for Cancer Therapy: Updated Progress and Novel Strategies” (J Med Chem, 2023).

For series [1], the target named is T1, Protein arginine N-methyltransferase 5 (Homo sapiens, UniProt O14744). Briefly: Inhibition of PRMT5 in human U-87 MG cells assessed as suppression of sDMA level incubated for 3 days by western blot analysis. The format is cell-based.
A short description of series [2]: Oral bioavailability in CB17-SCID mouse at 10 mg/kg incubated for 24 hrs by LC-MS/MS analysis. The format is ADME, organism-based. The conditions noted are these: in vivo.
Series [3] deals with Z-138. Briefly: Anti-proliferative activity against human Z138 cells assessed as cell growth inhibition incubated for 8 days by Cell-Titer Glo assay. In kind it is functional, cell-based. The conditions noted are these: Z-138, 192 h.
In series [4] the target is T2, PRMT5/MEP50 complex (Homo sapiens, UniProt O14744). Nature of the series: Inhibition of PRMT5/MEP50 (unknown origin) using histone H4 peptide as substrate preincubated for 30 mins followed by substrate addition and measured for 60 mins by AlphaScreen analysis. In kind it is protein-complex assay.
For series [5], the system named is Z-138. Briefly: Antitumor activity against human Z138 cells xenografted in CB17-SCID mouse at 50 mg/kg, po QD for 3 weeks relative to control. In kind it is functional. The following applies: Z-138, 504 h, read-out: TGI.
In series [6] the target is T1, Protein arginine N-methyltransferase 5. Briefly: Inhibition of PRMT5 in human Z138 cells assessed as decrease in sDMA modification incubated for 2 days by fluorescence based assay. The format is cell-based.
The test system of the next series is U-87 MG. Nature of the series: Anti-proliferative activity against human U-87 MG cells assessed as cell growth inhibition incubated for 3 days by CCK-8 assay. The format is functional, cell-based, U-87MG ATCC. The following applies: 72 h.
Series [7] deals with Voltage-gated inwardly rectifying potassium channel KCNH2 (Homo sapiens, UniProt Q12809). Nature of the series: Inhibition of hERG potassium channel in human HEK293 cells by manual patch clamp assay. In kind it is toxicity, cell-based.
For series [8], the system named is A-427. Nature of the series: Antitumor activity in human A-427 harboring RBM10 I348N mutant xenografted in mouse model assessed as tumor growth inhibition at 30 mg/kg administered once daily and measured after 44 days relative to control. The format is functional. The conditions noted are these: A-427, 1056 h, time 44 day, read-out: TGI.
Series [9] in a line: In vivo inhibition of PMRT5 in mouse xenografted with human A427 cells assessed as reduction in sDMA level by ELISA (reference value: 66.4%). The format is functional, A-427.
Series [10] is described as follows: Clearance in rat. The conditions noted are these: in vivo. In kind it is ADME.
Series [11] concerns the target T1, Protein arginine N-methyltransferase 5. Nature of the series: Inhibition of PRMT5 in human A427 cells assessed as reduction in sDMA level incubated for 72 hrs by liquid scintillation analysis.
Series [12] in a line: Oral bioavailability in rat at 10 mg/kg. The format is ADME, organism-based. The following applies: in vivo.
Series [13] in a line: Volume of distribution at steady state in rat at 2 mg/kg, iv. The format is ADME, organism-based. The conditions noted are these: in vivo, read-out: Vdss.
Series [14] has as its system A-427. Nature of the series: Antitumor activity in human A-427 harboring RBM10 I348N mutant xenografted in mouse model assessed as tumor growth inhibition at 10 mg/kg administered once daily and measured after 44 days relative to control. The format is functional. The conditions noted are these: A-427, 1056 h, time 44 day, read-out: TGI.
The target of series [15] is T2, PRMT5/MEP50 complex. Nature of the series: Binding affinity to N-terminal 6xHis-tagged full length human PRMT5/MEP50 expressed in sf21 cells using S-Adenosyl-L-methionine as substrate assessed as dissociation constant incubated for 25 to 60 mins by liquid scintillation analysis.
Series [16] deals with A-427. Nature of the series: Antitumor activity in human A-427 harboring RBM10 I348N mutant xenografted in mouse model assessed as tumor growth inhibition at 3 mg/kg administered once daily and measured after 44 days relative to control. The format is functional. The conditions noted are these: A-427, 1056 h, time 44 day, read-out: TGI.
The subject of series [17] is Z-138. Briefly: Antitumor activity against human Z138 cells xenografted in mouse as tumor growth inhibition at 15 mg/kg, po administered twice daily relative to control. The format is functional. The conditions noted are these: read-out: TGI.
Series [18] deals with Z-138. Nature of the series: Antiproliferative activity against human Z138 cells. The format is functional, cell-based.
For series [19], the target named is T1, Protein arginine N-methyltransferase 5. Nature of the series: Inhibition of PRMT5 (unknown origin).
Series [20] has as its system Z-138. Briefly: Antitumor activity against human Z138 cells xenografted in mouse as tumor growth inhibition at 5 mg/kg, po administered twice daily relative to control. In kind it is functional. The conditions noted are these: read-out: TGI.
Series [21] concerns the target T1, Protein arginine N-methyltransferase 5. Nature of the series: Inhibition of PRMT5 in human Z138 cells assessed as suppression of sDMA level. The format is cell-based.
The subject of series [22] is Z-138. Nature of the series: Antitumor activity against human Z138 cells xenografted in mouse as tumor growth inhibition at 1.5 mg/kg, po administered twice daily relative to control. The conditions noted are these: read-out: TGI. In kind it is functional.
Series [23] can be described thus: Anti-proliferative activity against human HCT116-MTAP null cells assessed as cell growth inhibition incubated for 6 days by CellTiter-Glo Luminescent Cell Viability Assay. In kind it is functional, cell-based. The following applies: 144 h.
Series [24] deals with T2, PRMT5/MEP50 complex. Nature of the series: Binding affinity to PRMT5/MEP50 (unknown origin) using histone H4 peptide assessed as inhibition constant preincubated for 24 hrs followed by substrate addition and measured for 2 hrs in the presence of SAM by MTase-Glo Methyl Transferase Assay. In kind it is protein-complex assay.
Series [25] can be described thus: Anti-proliferative activity against human HCT116-MTAP null cells assessed as cell growth inhibition incubated overnight by CellTiter-Glo luminescent assay. In kind it is functional, cell-based.
A further series deals with HCT-116. Nature of the series: Anti-proliferative activity against wild type human HCT-116 cells assessed as cell growth inhibition incubated overnight by CellTiter-Glo luminescent assay. In kind it is functional, cell-based.
The target of series [26] is T1, Protein arginine N-methyltransferase 5. Briefly: Inhibition of PRMT5 in human NCI-H1048 cells assessed as reduction in dimethylation of SmD1/3 at 1 nM incubated for 48 hrs relative to control. The format is cell-based.
Series [27] has the same target. Nature of the series: Inhibition of PRMT5 in human NCI-H1048 cells assessed as reduction in dimethylation of SmD1/3 at 10 nM incubated for 48 hrs relative to control. In kind it is cell-based.
Series [28] deals with NCI-H1048. Briefly: Antitumor activity against human NCI-H1048 cells xenografted in mouse assessed as tumor growth inhibition at 10 mg/kg, po administered daily for 28 days relative to control. The format is functional. The following applies: NCI-H1048, 672 h, time 28 day, read-out: TGI.
The subject of series [29] is NCI-H1048. Nature of the series: Antiproliferative activity against human NCI-H1048 cells assessed as cell growth inhibition incubated for 6 days by MTT assay. The format is functional. The following applies: NCI-H1048, 144 h, time 6 day.
Series [30] concerns NCI-H1048. Nature of the series: Antitumor activity against human NCI-H1048 cells xenografted in mouse assessed as tumor growth inhibition at 10 mg/kg, po administered daily for 28 days with two cycles of 7 days of treatment followed by 7 days without treatment relative to control. The following applies: NCI-H1048, 672 h, time 28 day, read-out: TGI. In kind it is functional.

Series [31] addresses PRMT5/MEP50 complex (Homo sapiens) (UniProt O14744+Q9BQA1). Briefly: Binding affinity to Full-length human PRMT5/human MEP50 assessed as association constant by SPR analysis. The format is protein-complex assay.
Another series has as its system NCI-H358. Briefly: Antiproliferative activity against human NCI-H358 assessed as cell growth inhibition measured after 7 days by CCK-8 assay. The conditions noted are these: NCI-H358, 168 h. The format is functional, cell-based.
Another series concerns MDA-MB-468. Briefly: Antiproliferative activity against human MDA-MB-468 assessed as cell growth inhibition measured after 7 days by CCK-8 assay. In kind it is functional, cell-based. The following applies: MDA-MB-468, 168 h.
In series [32] the test system is Z-138. Briefly: Antiproliferative activity against human Z138 cells assessed as cell growth inhibition measured after 7 days by CCK-8 assay. In kind it is functional, cell-based. The following applies: Z-138, 168 h.

Each structure is given as a SMILES string.

T1 sequence (O14744 whole entry): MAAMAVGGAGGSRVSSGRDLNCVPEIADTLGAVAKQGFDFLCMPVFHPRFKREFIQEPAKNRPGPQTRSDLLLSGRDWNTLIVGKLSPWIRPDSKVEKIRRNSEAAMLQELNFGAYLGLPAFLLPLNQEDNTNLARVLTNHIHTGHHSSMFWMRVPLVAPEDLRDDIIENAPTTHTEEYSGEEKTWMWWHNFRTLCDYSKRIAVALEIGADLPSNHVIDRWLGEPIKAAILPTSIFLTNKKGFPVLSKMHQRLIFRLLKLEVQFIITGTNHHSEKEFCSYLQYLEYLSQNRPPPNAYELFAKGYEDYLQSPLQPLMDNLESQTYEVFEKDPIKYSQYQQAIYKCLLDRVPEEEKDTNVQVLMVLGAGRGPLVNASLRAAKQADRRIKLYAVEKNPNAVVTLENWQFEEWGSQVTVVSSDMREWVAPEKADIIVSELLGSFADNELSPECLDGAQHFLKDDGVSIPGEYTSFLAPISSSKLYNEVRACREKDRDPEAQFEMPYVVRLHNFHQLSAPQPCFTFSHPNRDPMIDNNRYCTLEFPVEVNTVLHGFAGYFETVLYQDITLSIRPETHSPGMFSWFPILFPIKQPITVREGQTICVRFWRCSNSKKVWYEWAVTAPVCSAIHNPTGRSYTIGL
T2 sequence (O14744 whole entry): as above
T2 sequence (Q9BQA1 whole entry, further chain): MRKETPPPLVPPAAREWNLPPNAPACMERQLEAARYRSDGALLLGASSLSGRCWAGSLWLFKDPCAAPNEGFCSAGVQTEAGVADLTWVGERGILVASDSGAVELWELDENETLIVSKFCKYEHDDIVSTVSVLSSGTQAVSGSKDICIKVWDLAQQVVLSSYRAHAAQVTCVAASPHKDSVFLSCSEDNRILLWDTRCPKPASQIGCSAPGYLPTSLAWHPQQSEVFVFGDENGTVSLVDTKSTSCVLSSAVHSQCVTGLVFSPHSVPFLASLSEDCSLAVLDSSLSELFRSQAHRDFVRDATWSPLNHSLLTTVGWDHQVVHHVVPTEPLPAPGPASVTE
Voltage-gated inwardly rectifying potassium channel KCNH2, sequence (Q12809 whole entry): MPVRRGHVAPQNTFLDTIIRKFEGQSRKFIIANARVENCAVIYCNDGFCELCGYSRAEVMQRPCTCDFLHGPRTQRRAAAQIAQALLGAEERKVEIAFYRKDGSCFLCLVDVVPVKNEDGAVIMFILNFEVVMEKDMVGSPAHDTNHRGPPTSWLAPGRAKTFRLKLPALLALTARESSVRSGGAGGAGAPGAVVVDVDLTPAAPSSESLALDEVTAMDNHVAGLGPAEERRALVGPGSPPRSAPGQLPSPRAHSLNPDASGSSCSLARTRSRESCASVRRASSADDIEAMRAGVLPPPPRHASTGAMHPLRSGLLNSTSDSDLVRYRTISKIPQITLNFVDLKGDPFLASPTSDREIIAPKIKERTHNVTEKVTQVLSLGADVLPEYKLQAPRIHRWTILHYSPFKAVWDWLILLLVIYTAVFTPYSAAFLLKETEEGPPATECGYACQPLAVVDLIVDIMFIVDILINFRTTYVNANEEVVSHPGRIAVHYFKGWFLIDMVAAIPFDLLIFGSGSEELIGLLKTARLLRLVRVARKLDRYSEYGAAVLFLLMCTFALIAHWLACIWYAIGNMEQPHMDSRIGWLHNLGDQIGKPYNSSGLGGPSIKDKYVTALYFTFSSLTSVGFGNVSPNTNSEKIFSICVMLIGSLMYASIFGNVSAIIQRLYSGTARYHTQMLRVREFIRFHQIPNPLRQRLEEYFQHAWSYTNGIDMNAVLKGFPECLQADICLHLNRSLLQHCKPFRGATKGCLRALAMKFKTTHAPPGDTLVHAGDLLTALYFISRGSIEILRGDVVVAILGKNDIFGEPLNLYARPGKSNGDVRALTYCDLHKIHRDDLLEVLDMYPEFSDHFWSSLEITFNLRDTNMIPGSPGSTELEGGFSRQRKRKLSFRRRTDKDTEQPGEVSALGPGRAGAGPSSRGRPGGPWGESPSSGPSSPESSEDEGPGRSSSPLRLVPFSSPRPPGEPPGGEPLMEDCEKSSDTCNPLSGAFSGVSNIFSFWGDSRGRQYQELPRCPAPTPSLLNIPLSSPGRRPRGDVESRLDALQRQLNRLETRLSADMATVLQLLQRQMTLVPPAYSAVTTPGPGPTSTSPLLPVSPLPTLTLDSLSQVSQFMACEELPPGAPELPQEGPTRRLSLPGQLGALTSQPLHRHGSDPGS

As for `Nc1ncnc2c1ccn2[C@@H]1O[C@H]([C@@H]2OCc3cc(Cl)ccc32)[C@@H](O)[C@H]1O`, the IC50 in series [1] was 120 nM.

In turn, `CC1(C)CN(C[C@@H](O)[C@@H]2Cc3ccccc3CN2)C(=O)c2ccc(C(=O)N3CCC4(CC3)CC4)cc21` yielded a bioavailability in series [2] of 46.2%. In addition, the results for the IC50 (with Z-138 [3]; on PRMT5/MEP50 complex [4]; in series [6]) were 0.3 nM, 2.8 nM and 0.8 nM, respectively. In the series with Z-138 [5], the inhibition in vivo at 50 mg/kg came to 93.2%.

Consider `Nc1ncnc2c1ccn2[C@@H]1O[C@H]([C@@H]2OCCc3cc(Cl)ccc32)[C@@H](O)[C@H]1O`, for which, in the series with U-87 MG, the 50% inhibitory concentration (IC50) was found to be 2.6 nM.

For `CC(=O)N1CCC(Nc2cc3c(cn2)C2(CC2)CN(C[C@H](O)CN2CCc4ccccc4C2)C3=O)CC1`, the 50% inhibitory concentration (IC50) in [7] worked out at 5200 nM.

Take `Cc1ncnc2c1ccn2[C@@H]1C[C@H](Oc2cc(C(F)F)c(F)c3c2CNCC3)[C@@H](O)[C@H]1O`: the inhibition in vivo at 30 mg/kg in the series with A-427 [8] amounted to 101%. In addition, the “inhibition (INH)” value in series [9] is recorded as 79.8%. Further, the clearance in series [10] turned out to be 40 mL/min/kg. The 50% inhibitory concentration (IC50) in [11] was 1.1 nM. In [12], the bioavailability turned out to be 40%. For the same molecule, the Vd in series [13] was found to be 3.8 L/kg. Further, the inhibition in vivo at 10 mg/kg with A-427 [14] came out at 74.9%. For the same molecule, the Kd on PRMT5/MEP50 complex [15] came out at 0.0114 nM. The inhibition in vivo at 3 mg/kg with A-427 [16] came to 52.1%.

Regarding `CCN1CCN(C[C@@H](O)[C@@H]2Cc3ccccc3CN2)C(=O)c2ccc(C(=O)N3CCC4(CC3)CC(OC)C4)cc21`, in the series on Z-138 [17], the inhibition in vivo at 15 mg/kg is 112%. The half-inhibitory concentration (IC50) in the series with Z-138 [18] worked out at 2.2 nM; in series [19], 4.2 nM; in series [21] it was 1.4 nM. Besides, the inhibition in vivo at 5 mg/kg in the series on Z-138 [20] came out at 47.8%. The inhibition in vivo at 1.5 mg/kg in the series on Z-138 [22] worked out at 36%.

In the case of `Cc1cc2cc(C(=O)N(Cc3ccc(C(F)(F)F)cn3)[C@@H]3CCCc4[nH]ncc43)ccc2nc1N`, the results for the IC50 (in series [23]; in [25]; with HCT-116) were 5 nM, 10 nM and 142 nM, respectively. For the same molecule, the inhibition constant Ki on PRMT5/MEP50 complex [24] turned out to be 0.05 nM.

Turning to `Nc1nc2cc(CC[C@H]3C[C@@H](n4ccc5c(N)ncnc54)[C@H](O)[C@@H]3O)ccc2cc1Br` [ONAMETOSTAT], the results for the inhibition in series [26] and in [27] were above 50% and 80%, respectively. In addition, the inhibition in vivo at 10 mg/kg is 77% with NCI-H1048 [28] and 67% in the series on NCI-H1048 [30]. Also, the GI50 in the series with NCI-H1048 [29] was 1.3 nM. Moreover, the Ka in [31] was 6.3 10^5/M/s.

Take `Nc1ncnc2c1ccn2[C@@H]1O[C@H]([C@H](O)c2ccc(Cl)c(F)c2)[C@@H](O)[C@H]1O`: the Kd at PRMT5/MEP50 complex [15] stood at 0.241 nM.

Take `CC(=O)N1CC2(CC(Nc3cc4c(cn3)C3(CC3)CN(C[C@H](O)CN3CCc5ccccc5C3)C4=O)C2)C1`: the IC50 in [7] is 15100 nM; in the series with NCI-H358 it was 5 nM; with MDA-MB-468 it was 7.4 nM; in the series with Z-138 [32] it was 2.2 nM.
